Test system: GFP-LC3 puncta formation in PC12 cells
Test: Quantification of autophagy GFP-LC3 puncta
Format: cell-based, rat
Conditions: fluorescent microscopy
Method: Quantification of autophagy GFP-LC3 Puncta. GFP-LC3 puncta formation was quantified as described previously. In brief, cells grown on coverslips in a 6-well plate were fixed in 4% paraformaldehyde for 20 minutes at room temperature and then rinsed with PBS. Slides were mounted with FluorSave™ mounting media (Calbiochem, San Diego, Calif.) and examined by fluorescence microscopy. The number of GFP-positive cells with GFP-LC3 puncta formation was examined under the Nikon ECLIPSE 80i microscope. Representative images were captured with CCD digital camera Spot RT3™ (Diagnostic Instruments, Inc., Melville, N.Y.). To quantify autophagy, the percentage of cells with punctate GFP-LC3 fluorescence was calculated by counting the number of the cells with punctate GFP-LC3 fluorescence in GFP-positive cells. A minimum of 150 cells from 3 randomly selected fields was scored.

COc1ccc(/C=C/C(=O)O[C@@H]2[C@H](O[C@@H]3O[C@@H](C)[C@H](O)[C@@H](O)[C@H]3O)[C@@H](O[C@@H]3O[C@@H](C)[C@H](O[C@@H]4OC[C@@H](O[C@@H]5O[C@H](CO)[C@H](O)[C@H](O)[C@H]5O)[C@H](O)[C@H]4O)[C@@H](O)[C@H]3O)[C@H](OC(=O)[C@]34CCC(C)(C)C[C@H]3C3=CC[C@@H]5[C@@]6(C)C[C@H](O)[C@H](O[C@@H]7O[C@H](CO)[C@@H](O)[C@H](O)[C@H]7O)[C@@](C)(C(=O)O)[C@@H]6CC[C@@]5(C)[C@]3(CO)CC4)O[C@@H]2C)cc1 [Onjisaponin B]
GFP-LC3 puncta formation: increased the formation of GFP-LC3 puncta formation in a dose dependent manner
